Assay results as given in patent EP2766361B1, “8-CARBAMOYL-2-(2,3-DISUBSTITUTED PYRID-6-YL)-1,2,3,4-TETRAHYDROISOQUINOLINE DERIVATIVES AS APOPTOSIS-INDUCING AGENTS FOR THE TREATMENT OF CANCER AND IMMUNE AND AUTOIMMUNE DISEASES” (priority 2011, dated 2013).
pEC50: −log10 of the molar value.

What follows are compounds tested on Molt-4 human acute lymphoblastic leukemia cells (assay: Molt-4 cellular assay (cell viability, MTS)). Conditions: 10% human serum, 48 hours.
Type: cell-based
Procedure: Molt-4 (ATCC, Manassas, VA) human acute lymphoblastic leukemia cells were plated 50,000 cells per well in 96-well tissue culture plates in a total volume of 100 µL tissue culture medium supplemented with 10% human serum (Invitrogen, Carlsbad, CA) and treated with a 3-fold serial dilution of the compounds of interest from 5 µM to […]. Each concentration was tested in duplicate at least 3 separate times. The number of viable cells following 48 hours of compound treatment was determined using the CellTiter 96® Aqueous non-radioactive cell proliferation MTS assay according to manufacturer's recommendations (Promega Corp., Madison, WI).
Work on `Cc1c(OC23CC4CC(CC(C4)C2)C3)cccc1-c1ccc(N2CCc3cccc(C(=O)Nc4nc5ccccc5s4)c3C2)nc1C(=O)O` [Example 28, 6-[8-(1,3-benzothiazol-2-ylcarbamoyl)-3,4-dihydroisoquinolin-2(1H)-yl]-3-{2-methyl-3-[tricyclo[3.3.1.1^3,7]dec-1-yloxy]phenyl}pyridine-2-carboxylic acid] yielded a pEC50 of 6.28.
Work on `Cc1c(-c2ccc(N3CCc4cccc(C(=O)Nc5nc6ccccc6s5)c4C3)nc2C(=O)O)cc(C#N)n1CC12CC3CC(CC(C3)C1)C2` [Example 23, 6-[8-(1,3-benzothiazol-2-ylcarbamoyl)-3,4-dihydroisoquinolin-2(1H)-yl]-3-[5-cyano-2-methyl-1-(tricyclo[3.3.1.1^3,7]dec-1-ylmethyl)-1H-pyrrol-3-yl]pyridine-2-carboxylic acid] yielded a pEC50 of 7.80.

What follows are compounds tested on mouse FL5.12 cells transfected with Bcl-xL (assay: FL5.12 cellular assay (cell viability, CellTiter-Glo)). Conditions: IL-3-depleted, 3% FBS assay media, 24 hours, read-out: FL5.12 Bcl-xL, -IL3, EC50.
Type: cell-based
Procedure: Cell viability was assayed using the CellTiter-Glo assay (Promega Corp., Madison, WI) according to the manufacturer instructions. Individual determinations were the result of duplicate values. […] Table 2. In Vitro Data
`Cc1c(OC23CC4CC(CC(C4)C2)C3)cccc1-c1ccc(N2CCc3cccc(C(=O)Nc4nc5ccccc5s4)c3C2)nc1C(=O)O` [Example 28, 6-[8-(1,3-benzothiazol-2-ylcarbamoyl)-3,4-dihydroisoquinolin-2(1H)-yl]-3-{2-methyl-3-[tricyclo[3.3.1.1^3,7]dec-1-yloxy]phenyl}pyridine-2-carboxylic acid] showed a pEC50 of 7.66.
With `Cc1c(-c2ccc(N3CCc4cccc(C(=O)Nc5nc6ccccc6s5)c4C3)nc2C(=O)O)cc(C#N)n1CC12CC3CC(CC(C3)C1)C2` [Example 23, 6-[8-(1,3-benzothiazol-2-ylcarbamoyl)-3,4-dihydroisoquinolin-2(1H)-yl]-3-[5-cyano-2-methyl-1-(tricyclo[3.3.1.1^3,7]dec-1-ylmethyl)-1H-pyrrol-3-yl]pyridine-2-carboxylic acid] the pEC50 was over 9.00.
`Cc1c(-c2ccc(N3CCc4cccc(C(=O)Nc5nc6ccccc6s5)c4C3)nc2C(=O)O)cc(C#N)n1CC12CC3CC(CC(C3)O1)C2` [Example 71, 6-[8-(1,3-benzothiazol-2-ylcarbamoyl)-3,4-dihydroisoquinolin-2(1H)-yl]-3-[5-cyano-2-methyl-1-(2-oxatricyclo[3.3.1.1^3,7]dec-1-ylmethyl)-1H-pyrrol-3-yl]pyridine-2-carboxylic acid] was tested, and the pEC50 was 9.00.
`COCCC1(Cn2cc(-c3ccc(N4CCc5cccc(C(=O)Nc6nc7ccccc7s6)c5C4)nc3C(=O)O)cn2)C2CC3CC(C2)CC1C3` (stereo not drawn) [Example 56, 6-[8-(1,3-benzothiazol-2-ylcarbamoyl)-3,4-dihydroisoquinolin-2(1H)-yl]-3-(1-{[2-(2-methoxyethyl)tricyclo[3.3.1.1^3,7]dec-2-yl]methyl}-1H-pyrazol-4-yl)pyridine-2-carboxylic acid] was tested, and the pEC50 was 7.77.
For `O=C(Nc1nc2ccccc2s1)c1cccc2c1CN(c1ccc(-c3cccc(OCC45CC6CC(CC(C6)C4)C5)c3)c(C(=O)O)n1)CC2` [Example 22, 6-[8-(1,3-benzothiazol-2-ylcarbamoyl)-3,4-dihydroisoquinolin-2(1H)-yl]-3-{3-[tricyclo[3.3.1.1^3,7]dec-1-ylmethoxy]phenyl}pyridine-2-carboxylic acid], the pEC50 was under 6.00.
`Cc1c(-c2ccc(N3CCc4cccc(C(=O)Nc5nc6ccccc6s5)c4C3)nc2C(=O)O)cnn1CC12CC3CC(C)(CC(C)(C3)C1)C2` [Example 32, 6-[8-(1,3-benzothiazol-2-ylcarbamoyl)-3,4-dihydroisoquinolin-2(1H)-yl]-3-(1-{[3,5-dimethyltricyclo[3.3.1.1^3,7]dec-1-yl]methyl}-5-methyl-1H-pyrazol-4-yl)pyridine-2-carboxylic acid] was tested, and the pEC50 was 9.00.
`Cc1c(C(=O)N(C)C2C3CC4CC(C3)CC2C4)cccc1-c1ccc(N2CCc3cccc(C(=O)Nc4nc5ccccc5s4)c3C2)nc1C(=O)O` (stereo not drawn) [Example 64] gave a pEC50 of 7.59.
With `COCCOCCOC12CC3CC(CC(Cn4ncc(-c5ccc(N6CCc7cccc(C(=O)Nc8nc9ccccc9s8)c7C6)nc5C(=O)O)c4C)(C3)C1)C2` [Example 63, 6-[8-(1,3-benzothiazol-2-ylcarbamoyl)-3,4-dihydroisoquinolin-2(1H)-yl]-3-[1-({3-[2-(2-methoxyethoxy)ethoxy]tricyclo[3.3.1.1^3,7]dec-1-yl}methyl)-5-methyl-1H-pyrazol-4-yl]pyridine-2-carboxylic acid] the pEC50 was 8.52.
With `CC(C)OC12CC3CC(CC(Cn4cc(-c5ccc(N6CCc7cccc(C(=O)Nc8nc9ccccc9s8)c7C6)nc5C(=O)O)cn4)(C3)C1)C2` [Example 12, 6-[8-(1,3-benzothiazol-2-ylcarbamoyl)-3,4-dihydroisoquinolin-2(1H)-yl]-3-(1-{[3-(propan-2-yloxy)tricyclo[3.3.1.1^3,7]dec-1-yl]methyl}-1H-pyrazol-4-yl)pyridine-2-carboxylic acid] the pEC50 was 7.62.
Compound `Cc1c(-c2ccc(N3CCc4cccc(C(=O)Nc5cn6ncccc6n5)c4C3)nc2C(=O)O)cnn1CC12CC3CC(CC(C3)C1)C2` [Example 77, 6-[8-(imidazo[1,2-b]pyridazin-2-ylcarbamoyl)-3,4-dihydroisoquinolin-2(1H)-yl]-3-[5-methyl-1-(tricyclo[3.3.1.1^3,7]dec-1-ylmethyl)-1H-pyrazol-4-yl]pyridine-2-carboxylic acid] has a pEC50 of 8.40.
Compound `Cc1c(-c2ccc(N3CCc4cccc(C(=O)Nc5nc6ccccc6s5)c4C3)nc2C(=O)NS(C)(=O)=O)cc(C#N)n1CC12CC3CC(CC(C3)C1)C2` [Example 35, N-(1,3-benzothiazol-2-yl)-2-{5-[5-cyano-2-methyl-1-(tricyclo[3.3.1.1^3,7]dec-1-ylmethyl)-1H-pyrrol-3-yl]-6-[(methylsulfonyl)carbamoyl]pyridin-2-yl}-1,2,3,4-tetrahydroisoquinoline-8-carboxamide] has a pEC50 of 9.00.
`COC12CC3CC(CC(Cn4cc(-c5ccc(N6CCc7cccc(C(=O)Nc8nc9ccccc9s8)c7C6)nc5C(=O)O)cn4)(C3)C1)C2` [Example 7, 6-[8-(1,3-benzothiazol-2-ylcarbamoyl)-3,4-dihydroisoquinolin-2(1H)-yl]-3-(1-{[3-methoxytricyclo[3.3.1.1^3,7]dec-1-yl]methyl}-1H-pyrazol-4-yl)pyridine-2-carboxylic acid] showed a pEC50 of 7.43.
For `Cc1c(-c2ccc(N3CCc4cccc(C(=O)Nc5nc6cccnc6s5)c4C3)nc2C(=O)NS(C)(=O)=O)cnn1CC12CC3CC(CC(C3)C1)C2` [Example 75, 2-{6-[(methylsulfonyl)carbamoyl]-5-[5-methyl-1-(tricyclo[3.3.1.1^3,7]dec-1-ylmethyl)-1H-pyrazol-4-yl]pyridin-2-yl}-N-([1,3]thiazolo[5,4-b]pyridin-2-yl)-1,2,3,4-tetrahydroisoquinoline-8-carboxamide], the pEC50 was 8.52.
For `Cc1cc(OCC23CC4CC(CC(C4)C2)C3)ccc1-c1ccc(N2CCc3cccc(C(=O)Nc4nc5ccccc5s4)c3C2)nc1C(=O)O` [Example 20, 6-[8-(1,3-benzothiazol-2-ylcarbamoyl)-3,4-dihydroisoquinolin-2(1H)-yl]-3-{2-methyl-4-[tricyclo[3.3.1.1^3,7]dec-1-ylmethoxy]phenyl}pyridine-2-carboxylic acid], the pEC50 was under 6.00.
`Cc1c(-c2ccc(N3CCc4cccc(C(=O)Nc5nc6ccccc6s5)c4C3)nc2C(=O)O)cnn1CC1(OCCS(C)(=O)=O)CCCCCCC1` [Example 65, 6-[8-(1,3-benzothiazol-2-ylcarbamoyl)-3,4-dihydroisoquinolin-2(1H)-yl]-3-[5-methyl-1-({1-[2-(methylsulfonyl)ethoxy]cyclooctyl}methyl)-1H-pyrazol-4-yl]pyridine-2-carboxylic acid] was tested, and the pEC50 was 9.00.
`COC12CC3CC(CC(Cn4ncc(-c5ccc(N6CCc7cccc(C(=O)Nc8nc9ccccc9s8)c7C6)nc5C(=O)NS(=O)(=O)C5CC5)c4C)(C3)C1)C2` [Example 41] was tested, and the pEC50 was 9.40.
`COC12CC3CC(CC(Cn4ncc(-c5ccc(N6CCc7cccc(C(=O)Nc8nc9ccccc9s8)c7C6)nc5C(=O)NS(=O)(=O)C(F)(F)F)c4C)(C3)C1)C2` [Example 40, N-(1,3-benzothiazol-2-yl)-2-[5-(1-{[3-methoxytricyclo[3.3.1.1^3,7]dec-1-yl]methyl}-5-methyl-1H-pyrazol-4-yl)-6-{[(trifluoromethyl)sulfonyl]carbamoyl}pyridin-2-yl]-1,2,3,4-tetrahydroisoquinoline-8-carboxamide] showed a pEC50 of 7.33.
Work on `Cc1c(-c2ccc(N3CCc4cccc(C(=O)Nc5nc6ccccc6s5)c4C3)nc2C(=O)O)ccnc1N(C)C1CCCCCCC1` [Example 61, 6-[8-(1,3-benzothiazol-2-ylcarbamoyl)-3,4-dihydroisoquinolin-2(1H)-yl]-2'-[cyclooctyl(methyl)amino]-3'-methyl-3,4'-bipyridine-2-carboxylic acid] yielded a pEC50 of 8.00.
Work on `Cc1c(-c2ccc(N3CCc4cccc(C(=O)Nc5nc6cnccc6s5)c4C3)nc2C(=O)O)cnn1CC12CC3CC(CC(C3)C1)C2` [Example 31, 3-[5-methyl-1-(tricyclo[3.3.1.1^3,7]dec-1-ylmethyl)-1H-pyrazol-4-yl]-6-[8-([1,3]thiazolo[4,5-c]pyridin-2-ylcarbamoyl)-3,4-dihydroisoquinolin-2(1H)-yl]pyridine-2-carboxylic acid] yielded a pEC50 of 8.30.
For `O=C(Nc1nc2ccccc2s1)c1cccc2c1CN(c1ccc(-c3ccnc(OCC45CC6CC(CC(C6)C4)C5)c3)c(C(=O)O)n1)CC2` [Example 25, 6-[8-(1,3-benzothiazol-2-ylcarbamoyl)-3,4-dihydroisoquinolin-2(1H)-yl]-2'-(tricyclo[3.3.1.1^3,7]dec-1-ylmethoxy)-3,4'-bipyridine-2-carboxylic acid], the pEC50 was under 6.00.
`[2H]C1([2H])c2c(cccc2C(=O)Nc2nc3ccccc3s2)CCN1c1ccc(-c2cnn(CC34CC5CC(CC(C5)C3)C4)c2C)c(C(=O)O)n1` [Example 44, 6-[8-(1,3-benzothiazol-2-ylcarbamoyl)-1,1-dideutero-3,4-dihydroisoquinolin-2(1H)-yl]-3-[5-methyl-1-(tricyclo[3.3.1.1^3,7]dec-1-ylmethyl)-1H-pyrazol-4-yl]pyridine-2-carboxylic acid] was tested, and the pEC50 was 9.52.
With `COC1(Cn2ncc(-c3ccc(N4CCc5cccc(C(=O)Nc6nc7ccccc7s6)c5C4)nc3C(=O)O)c2C)CCCC2(CC2)C1` (stereo not drawn) [Example 79, 6-[8-(1,3-benzothiazol-2-ylcarbamoyl)-3,4-dihydroisoquinolin-2(1H)-yl]-3-{1-[(5-methoxyspiro[2.5]oct-5-yl)methyl]-5-methyl-1H-pyrazol-4-yl}pyridine-2-carboxylic acid] the pEC50 was 9.05.
